{"source": "patent US20050004029A1", "about": "“Methods and compositions for treating vascular leak using hepatocyte growth factor” (priority 2001, published 2005)", "key": {"[1]": {"system": "human alveolar epithelial cells (A549)", "experiment": "Electrical resistance of A549 alveolar epithelial cells on gold microelectrodes", "type": "cell-based", "details": "HGF 100 ng/mL; sphingosine 1-phosphate 1 μM", "procedure": "FIGS. 1A-1D depict HGF-mediated increases in human transendothelial electrical resistance (TER). FIG. 1A: Human pulmonary artery endothelial cells were grown to confluence on gelatinized gold microelectrodes. Two hours prior to TER measurement, growth medium was replaced with serum-free M199. Serial-diluted HGF was added to cells at indicated concentrations and TER monitored for 2.5 hr. […] The result shown is a representative TER tracing of three independent experiments. FIG. 1B: Similar to FIG. 1A, human alveolar epithelial cells (A549) were grown on gold microelectrodes and challenged with vehicle, HGF, (100 ng/mL) or sphingosine 1-phosphate (1 μM). […]\nElectrical resistance of EC monolayers was measured using electrical cell impedance sensor system (Applied Biophysics Inc., Troy, N.Y.) as described in Garcia, J. G. N. et al. (2000) J. Appl. […] Cells grown on gold microelectrodes (10^−3 cm^2) in polycarbonate wells act as insulating particles, and the resistance across the monolayers (transendothelial electrical resistance, or TER) is measured in real time. […] The in-phase and out-of-phase voltages between the electrodes were monitored in real time with the lock-in amplifier and converted to scalar measurements of transendothelial impedance, of which resistance was the primary focus. […]"}, "p42/44 ERK": {"system": "p42/44 ERK", "experiment": "p42/44 ERK activation by phospho-specific immunoblotting", "type": "cell-based, human", "details": "HGF 20 ng/ml", "procedure": "Endothelial cell monolayers grown to confluence in 12-well plates and challenged with HGF were lysed with 100 μl of 2×SDS sample buffer, and cell lysates were transferred into microcentrifuge tubes and boiled for 5 min. After a brief spin, proteins from 10 μl cell lysates were separated on 12% SDS-PAGE and transferred to nitrocellulose (Schleicher & Schuell, Keene, N.H.) (30V, 18 h). After blocking with PBST (PBS with 0.1% Tween 20) containing 5% non-fat milk for 1 hr, nitrocellulose blots were reacted with primary antibodies diluted in PBST containing 5% BSA for 1 hr, washed with PBST (3×10 min), incubated with peroxidase-conjugated secondary antibodies (goat anti-rabbit IgG, 1:10,000 dilution, Sigma; or goat anti-mouse IgG, 1:10,000 dilution, Bio-Rad Labs, Richmond, Calif.) diluted in PBST with 5% non-fat milk for 1 hr and again washed with PBST (3×10 min). Finally, immunoreactive proteins were detected using ECL. The relative intensities of the protein bands were quantified by scanning densitometry.\nThe MAP family of kinases (ERK1/2 and p38) are actively involved in agonist-induced endothelial cell actin reorganization and barrier regulation (Verin, A. D. et al. (2000) Am. J. Physiol: Lung Cell Molec. Phys. 279:L360-L370, 2000; Garcia, J. G. N. et al. (2001) J. Clin. Invest. 108:689-711) and have been noted to participate in HGF-mediated cell activation (Liang, C. C. and Chen, H. C. (2001) J. Biol. Chem. 276:21146-21152). These reports were confirmed in human endothelial cell monolayers incubated with HGF (20 ng/ml, for 1, 2, 5, 10, 15, 20, 30, 60, or 120 min) where activation of p42/44 ERK and p38 MAPK by HGF was detected by immunoblotting with antibodies that only recognize the phosphorylated (activated) forms of ERK or p38 MAPK. The activation of ERKs was evident at 5 min, maximal after 10-15 min with a gradual decline thereafter, but remaining sustained above basal levels for more than 2 hrs. […] The onset of HGF-mediated activation of p38 MAPK was similar to ERK, with plateau at 10-15 min. However, the duration of this response was much more truncated than ERK activation, beginning to decline by 20 min and returning to basal value by 1 hr."}}, "note": "Entries after “also recorded” stand apart in the source; their conditions may differ.", "data": [{"substance": "HGF: heparin-binding glycoprotein, multifunctional cytokine, ligand of c-Met; purchased from R&D Systems", "values": [{"measurement": "effect on electrical resistance of epithelial cells", "setting": "[1]", "value": "did not alter TER values; also recorded: completely without effect"}, {"measurement": "duration of ERK activation above basal levels", "setting": "p42/44 ERK", "value": "more than 2 hrs"}, {"measurement": "time at which ERK activation is evident", "setting": "p42/44 ERK", "value": 5, "unit": "min"}, {"measurement": "time of maximal ERK activation", "setting": "p42/44 ERK", "value": "10 to 15", "unit": "min"}]}]}
